A short description of data set [1]: MTT cytotoxicity assay, LO2. It is filed as cell-based. The following applies: human, normal cell line LO2, MTT, 0.19–100 μM. The method, then:
(§1) Reagent and cells. Adenocarcinomic human alveolar basal epithelial (A549) and human hepatoma (HepG2) cancer cell lines, immortalized normal human liver (LO2), human bronchial epithelial (BEAS-2B), and fibroblast-like CCD19Lu cells were purchased from [NT], Manassas, VA, USA). The cells were cultured in RPMI-1640 medium supplemented with 10% fetal bovine serum and antibiotics: Penicillin (50 U/Ml) and streptomycin (50 μg/mL; Invitrogen, Paisley, Scotland, UK). All cells were incubated at 37 °C in a 5% humidified CO2 incubator). All test compounds were dissolved in DMSO at a final concentration of 50 mM and stored at -20 °C before use. […] Briefly, 5 × 10^3 cells per well were seeded in 96-well plates before drug treatments. […] Cells without drug treatment were used as controls. Subsequently, 10 μL of 5 mg/mL MTT solution was added to each well and incubated at 37 °C for 4 h, followed by the addition of 100 μL solubilization buffer (12 mM HCl in a solution of 10% SDS) and overnight incubation. The absorbance, A570 nm, was then determined in each well on the next day. The percentage cell viability was calculated using the expression: % Viability = Atreated/ Acontrol × 100, and was given as cytotoxicity in Table 3.
(In general: Formazan colour is commonly taken as a measure of viable cells.)

The nature of data set [2]: MTT cytotoxicity assay, Hep-G2. The class given is cell-based. Conditions: human, cancer cell line Hep-G2, MTT, 0.19–100 μM. The method, then: as §1
A short description of data set [3]: MTT cytotoxicity assay, A549. The class given is cell-based. Conditions: human, cancer cell line A549, MTT, 0.19–100 μM. Here is the method:
as §1

Data set [4] can be described thus: MTT cytotoxicity assay, BEAS-2B. It is filed as cell-based. The following applies: human, normal cell line BEAS-2B, 0.19–100 μM. The method, then: as §1
[5] abbreviates: LO2 cells (immortalized normal human liver).
Setting [6] is: BEAS-2B cells (human bronchial epithelial).

This passage reports IC50 and melting point results from PMC6321058, “Crystal Structures and Cytotoxicity of ent-Kaurane-Type Diterpenoids from Two Aspilia Species” (Molecules, 2018).

Some results are limits rather than exact numbers.

A word on the IC50: it is the concentration that inhibits the measured activity by half. On to `CC(=O)O[C@H]1C(=O)[C@@]2(C)[C@H]([C@H](OC(=O)c3ccccc3)[C@]3(O)C[C@H](OC(=O)[C@H](O)[C@@H](NC(=O)c4ccccc4)c4ccccc4)C(C)=C1C3(C)C)[C@]1(OC(C)=O)CO[C@@H]1C[C@@H]2O` [Paclitaxel, reference compound], for which the IC50 at 72 h in data set [1] (setting [5]) is under 0.1 µM; in data set [2] (HepG2 cells (human hepatoma)) it was 0.19 µM; in data set [3], 0.0033 µM; in data set [4] (setting [6]), under 0.1 µM.

One may read the melting point as the temperature, or range, at which the solid turns liquid. For the compound `C=C1CC23CCC4C(C)(C(=O)O)CCCC4(C)C2=CC(OC)C1C3` (stereo not drawn) [Compound 1, 12α-methoxy-ent-kaur-9(11),16-dien-19-oic acid], the melting point was in the range of 184 to 186 °C. Besides, in data set [1], the concentration for half-maximal inhibition (IC50) at 72 h was over 100 µM. The compound further displayed an IC50 at 72 h in data set [2] of 27.3 ± 1.9 µM. In data set [3], the IC50 at 72 h is over 100 µM. For the same compound, the IC50 at 72 h in data set [4] was over 100 µM.

`C[C@@H]1C[C@@]23CC[C@@H]4[C@](C)(C(=O)O)CCC[C@@]4(C)C2=CC[C@@H]1C3` [Compound 6b, ent-kaur-9(11)-en-19-oic acid]: the IC50 at 72 h in data set [1] (setting [5]), in data set [2] (HepG2 cells (human hepatoma)), in data set [3] and in data set [4] (setting [6]) was over 100 µM throughout.

For the compound `C=C1CC23CCC4C(C)(C(=O)O)CCCC4(C)C2=CC(=O)C1C3` (stereo not drawn) [Compound 18, 12-oxo-ent-kaur-9(11),16-dien-19-oic acid], the 50% inhibitory concentration (IC50) at 72 h in data set [1] came out at 30 ± 1.7 µM; in data set [2] it was 81.3 ± 0.3 µM; in data set [3] it was 80.5 ± 1.8 µM; in data set [4], 38.6 ± 2.5 µM.

Consider `CC[C@H](/C=C/[C@@H](C)[C@H]1CC[C@H]2[C@@H]3CC=C4C[C@@H](O)CC[C@]4(C)[C@H]3CC[C@]12C)C(C)C` [Compound 14, stigmasta-5,22(E)-dien-3β-ol], for which the IC50 at 72 h in data set [1], in data set [2], in data set [3] and in data set [4] was over 100 µM throughout.

Consider `CO[C@@]1(C)C[C@@]23CC[C@@H]4[C@](C)(C(=O)O)CCC[C@@]4(C)C2=CC[C@@H]1C3` [Compound 6a], for which the IC50 at 72 h in data set [1] (setting [5]), in data set [2] (HepG2 cells (human hepatoma)), in data set [3] and in data set [4] (setting [6]) was over 100 µM throughout.

For `C=C1C2CCC3C4(C)CCCC(C)(C(=O)OC)C4CCC3(C2)C1OC(=O)C(C)=CC` (stereo not drawn) [Compound 17, methyl-15α-angeloyloxy-ent-kaur-16-en-19-oate], the IC50 at 72 h in data set [1] (setting [5]), in data set [2] (HepG2 cells (human hepatoma)), in data set [3] and in data set [4] (setting [6]) was over 100 µM in each case.

For the compound `C=C1C2CCC3(O)C4(C)CCCC(C)(C(=O)O)C4CCC3(C2)C1OC(=O)C(C)=CC` (stereo not drawn) [Compound 3, 9β-hydroxy-15α-angeloyloxy-ent-kaur-16-en-19-oic acid], the concentration for half-maximal inhibition (IC50) at 72 h in data set [1] (setting [5]) was 57.2 ± 1.2 µM; in data set [2] (HepG2 cells (human hepatoma)), 24.7 ± 2.8 µM; in data set [3], over 100 µM; in data set [4] (setting [6]), 89.9 ± 2 µM.

`C=C1C2CCC3C4(C)CCCC(C)(C(=O)O)C4CCC3(C2)C1OC(=O)C(C)=CC` (stereo not drawn) [Compound 7, 15α-angeloyloxy-ent-kaur-16-en-19-oic acid]: the IC50 at 72 h in data set [1] (setting [5]), in data set [2] (HepG2 cells (human hepatoma)), in data set [3] and in data set [4] (setting [6]) was over 100 µM throughout.

Consider `C=C1C[C@@]23CC[C@@H]4C(C)(C)CCC[C@@]4(C)C2=CC(=O)C1C3` [Compound 9, ent-kaur-9(11),16-dien-12-one], for which the IC50 at 72 h in data set [1] (setting [5]) was 75.3 ± 2.8 µM; in data set [2] (HepG2 cells (human hepatoma)), over 100 µM; in data set [3], over 100 µM; in data set [4] (setting [6]), over 100 µM.

Consider `C=C1CC23CCC4C(C)(C(=O)O)CCCC4(C)C2CCC1C3` (stereo not drawn) [Compound 11, ent-kaur-16-en-19-oic acid], for which the IC50 at 72 h in data set [1] (setting [5]), in data set [2] (HepG2 cells (human hepatoma)), in data set [3] and in data set [4] (setting [6]) was over 100 µM in each case.

As to `C=C1C[C@@]23CC[C@@H]4[C@](C)(C(=O)O)CCC[C@@]4(C)C2=CC[C@@H]1C3` [Compound 6, ent-kaur-9(11),16-dien-19-oic acid], the IC50 at 72 h in data set [1], in data set [2], in data set [3] and in data set [4] was over 100 µM throughout.

For `C=C1CC23CCC4C(C)(C(=O)OC)CCCC4(C)C2CCC1C3` (stereo not drawn) [Compound 10, methyl-ent-kaur-16-en-19-oate], the IC50 at 72 h in data set [1] (setting [5]), in data set [2] (HepG2 cells (human hepatoma)), in data set [3] and in data set [4] (setting [6]) was over 100 µM throughout.

Take `C=C1C2CCC3(O)C4(C)CCCC(C)(C(=O)OC)C4CCC3(C2)C1OC(=O)C(C)=CC` (stereo not drawn) [Compound 4, methyl-9β-hydroxy-15α-angeloyloxy-ent-kaur-16-en-19-oate]: the IC50 at 72 h in data set [1] (setting [5]), in data set [2] (HepG2 cells (human hepatoma)), in data set [3] and in data set [4] (setting [6]) was over 100 µM throughout.

As to `C[C@@]12CCC[C@@](C)(C(=O)O)[C@H]1CC[C@@]13C[C@@H](CC[C@H]12)[C@](C)(O)C3` [Compound 2, (16R)-hydroxy-ent-kauran-19-oic acid], the 50% inhibitory concentration (IC50) at 72 h in data set [1], in data set [2], in data set [3] and in data set [4] was over 100 µM in each case.

In turn, `CC=C(C)C(=O)OC1C23CCC4C(C)(C(=O)O)CCCC4(C)C2CCC(C3)C12CO2` (stereo not drawn) [Compound 5, 15α-angeloyloxy-16β,17-epoxy-ent-kauran-19-oic acid] had a melting point of 242 to 243 °C. The IC50 at 72 h in data set [1] (setting [5]) is over 100 µM. Besides, the half-inhibitory concentration (IC50) at 72 h in data set [2] (HepG2 cells (human hepatoma)) was over 100 µM. In data set [3], this compound registered an IC50 at 72 h of 30.7 ± 1.7 µM. Also, the IC50 at 72 h in data set [4] (setting [6]) is over 100 µM.
